{
  "source": "patent US20120195842A1",
  "about": "“ENHANCED PHOTOSTABILITY OF SUNCARE CO[…]” (priority 2008, published 2012)",
  "experiment": "Photostability of avobenzone in thin films of sunscreen compositions irradiated with solar simulated UVR",
  "format": "physicochemical",
  "conditions": "menthyl anthranilate at all levels, composition with octisalate, homosalate and avobenzone, up to 4 hours",
  "description": "To investigate its stabilizing effect of menthyl anthranilate on the photostability of avobenzone, menthyl anthranilate (meradimate) was incorporated into a fixed sunscreen composition at different levels. Thin film strips of each composition were then irradiated with solar simulated UVR for up to 4 hours as described in detail below. The compositions were then analyzed for the presence of avobenzone after a given period of time. • Formula compositions were prepared as follows: […]\nAssessment of avobenzone's photostability was performed on four different compositions that differed only in the amount of menthyl anthranilate that were used in the formulation.\nThe photostability of avobenzone in each emulsion was assessed after exposure to 80 joules of UV radiation (which corresponds to about 4 hours of outside sun exposure at noon in Memphis, Tenn. in June) using the method described below. […] Even 1% menthyl anthranilate improved avobenzone's photostability by approximately 6% after 2 hours and by 17% after 4 hours of exposure. […]\nAvobenzone's photostability was assessed by spreading known weights (14-18 mg) of emulsions onto glass microscope slides at an application density of about 2 mg/cm^2. […] UVR flux was measured using an OL 754 Spectroradiometer (Optronics laboratories, Inc., Orlando, Fla.) with an 8 inch integrating sphere. […]",
  "data": [
    {"compound": "CC1CCC(C(C)C)C(OC(=O)c2ccccc2N)C1", "note": "(stereo not shown) [menthyl anthranilate]", "values": [
      {"measurement": "effect on photostability of avobenzone to ultraviolet radiation (UVR)", "result": "improves photostability of avobenzone"}
    ]}
  ]
}
